According to US12129237B2, “Substituted diaminocarboxamide and diaminocarbonitrile pyrimidines, compositions thereof, and methods of treatment therewith” (SIGNAL PHARMACEUTICALS, LLC, priority 2011, dated 2024):

Biological target: T1, JNK1 (Homo sapiens, UniProt P45983)
T1 construct: purchased Carna Biosciences
Test: JNK1 biochemical assays (one or more of: time resolved fluorescence, Z'-LYTE Cascade, radioactive)
Conditions: Table 2; JNK1 IC50 activity level; read-out: Act. Level

T1 sequence (P45983 whole entry): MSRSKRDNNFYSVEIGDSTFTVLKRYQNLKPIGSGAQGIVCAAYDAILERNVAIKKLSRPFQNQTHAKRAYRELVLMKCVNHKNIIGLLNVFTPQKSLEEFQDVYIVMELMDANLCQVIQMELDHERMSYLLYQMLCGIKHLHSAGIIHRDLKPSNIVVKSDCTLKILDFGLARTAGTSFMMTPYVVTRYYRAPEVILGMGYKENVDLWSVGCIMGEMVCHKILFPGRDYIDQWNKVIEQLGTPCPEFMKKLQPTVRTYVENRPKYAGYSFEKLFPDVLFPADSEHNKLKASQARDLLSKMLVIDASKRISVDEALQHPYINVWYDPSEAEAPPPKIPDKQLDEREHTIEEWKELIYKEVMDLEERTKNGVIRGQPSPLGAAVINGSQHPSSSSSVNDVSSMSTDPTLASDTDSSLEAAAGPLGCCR

| IC50 [nM] | Compound |
| --- | --- |
| < 200 | C[C@@H]1CC[C@@H](Nc2nc(N[C@@H]3CCc4ncccc4C3)ncc2C(N)=O)C[C@H]1O [Example B-94, 4-((1R,3R,4R)-3-hydroxy-4-methylcyclohexylamino)-2-((R)-5,6,7,8-tetrahydroquinolin-6-ylamino)pyrimidine-5-carboxamide] |
| < 200 | NC(=O)c1cnc(N[C@@H]2CCc3ccccc3C2)nc1N[C@@H]1CCC[C@H](O)C1 [Example B-84, 4-((1R,3S)-3-hydroxycyclohexylamino)-2-((R)-1,2,3,4-tetrahydronaphthalen-2-ylamino)pyrimidine-5-carboxamide] |
| < 200 | NC(=O)c1cnc(Nc2cccc(F)c2)nc1Nc1ccccc1 [Example B-24, 2-(3-fluorophenylamino)-4-(phenylamino)pyrimidine-5-carboxamide] |
| < 200 | NC(=O)c1cnc(NC2CCCC2)nc1Nc1ccccc1 [Example B-44, 2-(cyclopentylamino)-4-(phenylamino)pyrimidine-5-carboxamide] |
| 200 to 800 | CC(C)Nc1nc(N[C@H]2CCc3cnccc3C2)ncc1C(N)=O [Example B-91, (S)-4-(isopropylamino)-2-(5,6,7,8-tetrahydroisoquinolin-6-ylamino)pyrimidine-5-carboxamide] |
| < 200 | NC(=O)c1cnc(Nc2ccccc2Oc2ccccc2)nc1Nc1ccccc1 [Example B-22, 2-(2-phenoxyphenylamino)-4-(phenylamino)pyrimidine-5-carboxamide] |

Same assay, conditions: Table 3; JNK1 IC50 activity level; read-out: Act. Level

| IC50 [nM] | Compound |
| --- | --- |
| 200 to 800 | CCO[C@H]1CC[C@H](Nc2ncc(C#N)c(NC3CCCCC3)n2)CC1 [Example C-20, 4-(cyclohexylamino)-2-((1r,4r)-4-ethoxycyclohexylamino) pyrimidine-5-carbonitrile] |
| < 200 | N#Cc1cnc(N[C@H]2CC[C@H](O)CC2)nc1N[C@@H]1CCC[C@H](O)C1 [Example C-8, 4-((1R,3S)-3-hydroxycyclohexylamino)-2-((1r,4R)-4-hydroxycyclohexylamino) pyrimidine-5-carbonitrile] |

Same assay, conditions: one or more of the JNK1 biochemical assays; read-out: Act. Level (JNK1 IC50 activity level)

| IC50 [nM] | Compound |
| --- | --- |
| < 200 | CC(C)(C)Nc1nc(N[C@H]2CC[C@@](C)(O)CC2)ncc1C(N)=O [Example 371, 4-(tert-butylamino)-2-((1s,4s)-4-hydroxy-4-methylcyclohexylamino)pyrimidine-5-carboxamide] |
| 200 to 800 | CC(C)(C)Nc1ncc(C(N)=O)c(N[C@@H]2CCCOC2)n1 [Example 236, (R)-2-(tert-butylamino)-4-(tetrahydro-2H-pyran-3-ylamino)pyrimidine-5-carboxamide] |
| < 200 | CCO[C@H]1CC[C@H](Nc2ncc(C(N)=O)c(NC3(CC)CCCC3)n2)CC1 [Example 464, 2-((1r,4r)-4-ethoxycyclohexylamino)-4-(1-ethylcyclopentylamino)pyrimidine-5-carboxamide] |
| < 200 | CC(C)(C)CNc1nc(N[C@H]2CC[C@H](O)CC2)ncc1C(N)=O [Example 228, 2-((1r,4r)-4-hydroxycyclohexylamino)-4-(neopentylamino)pyrimidine-5-carboxamide] |
| < 200 | CC1(C)CCC(Nc2nc(NC3CCC3)ncc2C(N)=O)CC1O (centres unmarked) [Example 429, 2-(cyclobutylamino)-4-(3-hydroxy-4,4-dimethylcyclohexylamino)pyrimidine-5-carboxamide] |
| < 200 | CO[C@H]1CC[C@H](Nc2ncc(C(N)=O)c(N[C@@H](C)C(C)(C)C)n2)CC1 [Example 278, 4-((S)-3,3-dimethylbutan-2-ylamino)-2-((1r,4S)-4-methoxycyclohexylamino)pyrimidine-5-carboxamide] |
| < 200 | C[C@@H]1CC[C@@H](Nc2nc(NC3CC3)ncc2C(N)=O)C[C@H]1O [Example 272, 2-(cyclopropylamino)-4-((1R,3R,4R)-3-hydroxy-4-methylcyclohexylamino)pyrimidine-5-carboxamide] |
| < 200 | C[C@@H](Nc1nc(NC2CCOCC2)ncc1C(N)=O)C1CC1 [Example 424, (R)-4-(1-cyclopropylethylamino)-2-(tetrahydro-2H-pyran-4-ylamino)pyrimidine-5-carboxamide] |
| 200 to 800 | CC1(C)CCC(Nc2nc(NC34CC(C3)C4)ncc2C(N)=O)CC1O (centres unmarked) [Example 427, 2-(bicyclo[1.1.1]pentan-1-ylamino)-4-(3-hydroxy-4,4-dimethylcyclohexylamino)pyrimidine-5-carboxamide] |
| < 200 | C[C@]1(O)CCCC(Nc2nc(NC34CCC(F)(CC3)CC4)ncc2C(N)=O)C1 (stereo partly drawn) [Example 321, 2-(4-fluorobicyclo[2.2.2]octan-1-ylamino)-4-((3S)-3-hydroxy-3-methylcyclohexylamino)pyrimidine-5-carboxamide] |
| < 200 | CC[C@@H](C)Nc1ncc(C(N)=O)c(N[C@@H]2CCC[C@H](O)C2)n1 [Example 497, 2-(sec-butylamino)-4-((1R,3S)-3-hydroxycyclohexylamino)pyrimidine-5-carboxamide] |
| < 200 | CCO[C@H]1CC[C@H](Nc2ncc(C(N)=O)c(NC34CC(C3)C4)n2)CC1 [Example 344, 4-(bicyclo[1.1.1]pentan-1-ylamino)-2-((1r,4r)-4-ethoxycyclohexylamino)pyrimidine-5-carboxamide] |
| < 200 | C[C@@H]1CC[C@@H](Nc2nc(NC3COC3)ncc2C(N)=O)C[C@H]1O [Example 312, 4-((1R,3R,4R)-3-hydroxy-4-methylcyclohexylamino)-2-(oxetan-3-ylamino)pyrimidine-5-carboxamide] |
| < 200 | CC1CCC1Nc1nc(N[C@H]2CC[C@H](O)CC2)ncc1C(N)=O (some centres unmarked) [Example 245, 2-((1r,4r)-4-hydroxycyclohexylamino)-4-(2-methylcyclobutylamino)pyrimidine-5-carboxamide] |
| < 200 | CCO[C@H]1CC[C@H](Nc2ncc(C(N)=O)c(N[C@H]3C[C@@H](C)C3)n2)CC1 [Example 326, 2-((1r,4r)-4-ethoxycyclohexylamino)-4-((1s,3s)-3-methylcyclobutylamino)pyrimidine-5-carboxamide] |
| < 200 | C[C@@H](Nc1nc(NC23CCC(O)(CC2)C3)ncc1C(N)=O)C1CC1 [Example 450, (R)-4-(1-cyclopropylethylamino)-2-(4-hydroxybicyclo[2.2.1]heptan-1-ylamino)pyrimidine-5-carboxamide] |
| < 200 | CC(C)C(C)(C)Nc1nc(N[C@H]2CC[C@H](O)CC2)ncc1C(N)=O [Example 275, 4-(2,3-dimethylbutan-2-ylamino)-2-((1r,4r)-4-hydroxycyclohexylamino)pyrimidine-5-carboxamide] |
| < 200 | C[C@@H]1CC[C@@H](Nc2nc(NC34CC(C3)C4)ncc2C(N)=O)C[C@H]1O [Example 264, 2-(bicyclo[1.1.1]pentan-1-ylamino)-4-((1R,3R,4R)-3-hydroxy-4-methylcyclohexylamino)pyrimidine-5-carboxamide] |

Same assay, conditions: tested in one or more of the JNK1 biochemical assays; read-out: Act. Level (JNK1 biochemical assay IC50 activity level)

| IC50 [nM] | Compound |
| --- | --- |
| 200 to 800 | COC[C@H]1CC[C@H](Nc2ncc(C(N)=O)c(NC3CCN(C(C)=O)CC3)n2)CC1 [Example A-82, 4-(1-acetylpiperidin-4-ylamino)-2-((1r,4r)-4-(methoxymethyl)cyclohexylamino)pyrimidine-5-carboxamide] |
| < 200 | CCO[C@H]1CC[C@H](Nc2ncc(C(N)=O)c(N[C@@H]3CCOC3)n2)CC1 [Example A-167, 2-((1r,4R)-4-ethoxycyclohexylamino)-4-((R)-tetrahydrofuran-3-ylamino)pyrimidine-5-carboxamide] |
| < 200 | CO[C@H]1CC[C@H](Nc2ncc(C(N)=O)c(N[C@@H]3CCCNC3)n2)CC1 [Example A-47, 2-((1r,4R)-4-methoxycyclohexylamino)-4-((R)-piperidin-3-ylamino)pyrimidine-5-carboxamide] |
| < 200 | C[C@H](Nc1ncc(C(N)=O)c(N[C@H]2CC[C@@H](CO)CC2)n1)C1CCCCC1 [Example A-122, 2-((S)-1-cyclohexylethylamino)-4-((1s,4R)-4-(hydroxymethyl)cyclohexylamino)pyrimidine-5-carboxamide] |
| 200 to 800 | CC(C)Nc1ncc(C(N)=O)c(N[C@H]2CC[C@@H](C(C)(C)O)CC2)n1 [Example A-140, 4-((1s,4s)-4-(2-hydroxypropan-2-yl)cyclohexylamino)-2-(isopropylamino)pyrimidine-5-carboxamide] |
| < 200 | CO[C@H]1CC[C@H](Nc2ncc(C(N)=O)c(N[C@H]3CC[C@H](NC(C)=O)CC3)n2)CC1 [Example A-38, 4-((1r,4r)-4-acetamidocyclohexylamino)-2-((1r,4r)-4-methoxycyclohexylamino)pyrimidine-5-carboxamide] |
| < 200 | CC(=O)N[C@H]1CC[C@H](Nc2ncc(C(N)=O)c(N[C@@H]3CCC[C@H](O)C3)n2)CC1 [Example A-39, 2-((1r,4R)-4-acetamidocyclohexylamino)-4-((1R,3S)-3-hydroxycyclohexylamino)pyrimidine-5-carboxamide] |
| < 200 | C[C@H](Nc1ncc(C(N)=O)c(N[C@H]2CC[C@@H](O)CC2)n1)C1CCCCC1 [Example A-125, 2-((S)-1-cyclohexylethylamino)-4-((1s,4R)-4-hydroxycyclohexylamino)pyrimidine-5-carboxamide] |
| < 200 | CO[C@H]1CC[C@H](Nc2ncc(C(N)=O)c(NC3CCCC3)n2)CC1 [Example A-190, 4-(cyclopentylamino)-2-((1r,4r)-4-methoxycyclohexylamino)pyrimidine-5-carboxamide] |
| < 200 | CO[C@@H]1CCC[C@H](Nc2ncc(C(N)=O)c(N[C@@H]3CCC[C@H](O)C3)n2)CC1 [Example A-162, 4-((1R,3S)-3-hydroxycyclohexylamino)-2-((1S,4R)-4-methoxycycloheptylamino)pyrimidine-5-carboxamide] |
| < 200 | CCO[C@H]1CC[C@H](Nc2ncc(C(N)=O)c(NCCO)n2)CC1 [Example A-71, 2-((1r,4r)-4-ethoxycyclohexylamino)-4-(2-hydroxyethylamino)pyrimidine-5-carboxamide] |
| < 200 | CO[C@H]1CC[C@H](Nc2ncc(C(N)=O)c(N[C@@H]3CCCC[C@@](C)(O)C3)n2)CC1 [Example A-186, 4-((1R,3R)-3-hydroxy-3-methylcycloheptylamino)-2-((1r,4R)-4-methoxycyclohexylamino)pyrimidine-5-carboxamide] |
